For data set [1], the system named is endogenous target monocytes in human PBMC. Briefly: PBMC ex vivo monocyte depletion flow cytometry assay (Example 200). In kind it is cell-based. The conditions noted are these: with anti-cotinine antibody SEQ ID NO: 11/12, 18-24 hours, read-out: Ex Vivo Depletion Assay pEC50 (converted). The protocol: A human PBMC (peripheral blood mononuclear cells) monocyte depletion flow cytometry assay was developed to screen compounds in a 384-well plate format. This assay incorporated endogenous natural killer cells to deplete endogenous target monocytes.
To screen compounds in the human PBMC monocyte depletion flow cytometry assay, 11-point dose-response curves were made from 1 mM stocks in neat DMSO by serially diluting an ARM compound of Formula (I) four-fold into a 384-well plate row-wise. These serially diluted compounds were then stamped into a flat bottom polypropylene 384-well plate (Greiner Bio-One) at 100 nL/well. Fifty microliters of 30 μg/mL anti-cotinine antibody having a heavy chain sequence of SEQ ID NO: 11 and a light chain sequence of SEQ ID NO: 12 (rabbit variable region with human IgG1 Fc domain containing a DE mutation (S239D/1332E)) that had been diluted in assay medium (RPMI 1640 (Gibco) containing 10% fetal bovine serum (Gibco), 1% Glutamax (Gibco) and 1% sodium pyruvate (Corning) was added to the wells of the plate. The plate was centrifuged for 1 min at 500 rpm (revolutions per minute) and then shaken for 5 min at room temperature. The plate was incubated for 15 minutes at 37° C./5% CO2.
Frozen PBMC cells (HemaCare BioResearch) were thawed and centrifuged at 1,200 rpm for 4 minutes. The cells were diluted to a cell density of 2×10^6 cells/mL in assay medium. Fifty microliters of the diluted cells were added to the wells of the plate. The plate was centrifuged for 1 min at 500 rpm and incubated for 18-24 hours at 37° C./5% CO2.
After 18-24 hours incubation, 2 μL of 6.25 μg human FC block (BD Pharmingen) that was diluted in assay medium was added to the wells of the plate. The plate was centrifuged for 1 minute at 500 rpm and then incubated at room temperature for 15 minutes. Five microliters of 750 nM Helix NP NIR (Biolegend) that had been diluted in assay medium was added to the wells of the plate. Nine microliters of antibody cocktail containing 1/5 diluted fluorescein isothiocyanate (FITC) labeled anti-CD45 antibody (Beckman Coulter), PC7 labeled anti-CD14 antibody (Beckman Coulter) and phycoerythrin (PE) anti-CD4 antibody (Beckman Coulter) was then added to the wells of the plate. The plate was centrifuged for 1 min at 500 rpm and incubated for 30 minutes at 4-8° C. Samples from the plate were run on BD FACS Canto II flow cytometer and data was analyzed using FlowJo software.
ARMs compounds of Formula (I) of the invention were tested for the ability to deplete monocytes in the above assay in one or more experimental runs and the results are shown in Table 3 below. Potency of the compounds of the invention is reported as a pEC50 value. The pEC50 value is the negative log of the EC50 value, wherein the EC50 value is the half maximal effective concentration measured in molar (M). For compounds tested in more than one experimental run, the pEC50 value is reported as an average or as the individual values measured
In general terms: Flow cytometry measures light scatter and fluorescence of single cells or particles in a stream.

For another data set, the system named is CCR2+ expressing cells. Briefly: Alternative dosing strategy of ARM compound to anti-cotinine antibody, blood concentration and CCR2+ cell depletion (Example 206). In kind it is in vivo. The conditions noted are these: co-dosing vs sequential dosing with anti-cotinine antibody, intravenously. From the text:
FIGS. 3A-3B: Alternative dosing strategy of small molecule ARM compound to anti-cotinine antibody, as described in Example 206, with anti-cotinine antibody and small molecule ARM compound (Example 1) co-dosed or sequentially dosed intravenously;
FIG. 5: Alternative dosing strategy of small molecule ARM compound to anti-cotinine antibody, as described in Example 206, with anti-cotinine antibody administered intravenously and ARM compound (Example 1) administered subcutaneously following a 2-hour delay from antibody dosing at various molar ratios of small molecule ARM: antibody; data shown is blood concentration of small molecule ARM compound at various timepoints following administration.

Experimental findings from patent US20250136722A1, “CYTOTOXICITY TARGETING CHIMERAS” (GLAXOSMITHKLINE INTELLECTUAL PROPERTY DEVELOPMENT LIMITED, priority 2021, published 2025) are described below.

Each structure is given as a SMILES string.

For the compound `CN1C(=O)C[C@H](C(=O)NCCOCCOCCOCCOCCOCCC(=O)N[C@@H]2C[C@H](NC(C)(C)C)CC[C@@H]2N2CC[C@H](Nc3ncnc4ccc(C(F)(F)F)cc34)C2=O)[C@H]1c1cccnc1` [Example 37], in data set [1], the EC50 is 5.01 nM.

For `CN1C(=O)C[C@H](C(=O)NCCOCCOCCOCCOCCOCCOCCC(=O)N[C@@H]2C[C@H](NC(C)(C)C)CC[C@@H]2N2CC[C@H](Nc3ncnc4ccc(C(F)(F)F)cc34)C2=O)[C@H]1c1cccnc1` [Example 38], the EC50 in data set [1] was 1.58 nM.

Turning to `CC(C)N(C)[C@@H]1CC[C@H](N2CC[C@H](Nc3ncnc4ccc(C(F)(F)F)cc34)C2=O)[C@H](NC(=O)[C@H]2CC[C@H](NC(=O)CCCO[C@H]3CC[C@H](OCCNC(=O)[C@H]4CC(=O)N(C)[C@@H]4c4cccnc4)CC3)CC2)C1` [Example 1, (2S,3S)-N-(2-(((1R,4S)-4-(4-(((1R,4R)-4-(((1R,2S,5R)-5-(Isopropyl(methyl)amino)-2-((S)-2-oxo-3-((6-(trifluoromethyl)quinazolin-4-yl)amino)pyrrolidin-1-yl)cyclohexyl)carbamoyl)cyclohexyl)amino)-4-oxobutoxy)cyclohexyl)oxy)ethyl)-1-methyl-5-oxo-2-(pyridin-3-yl)pyrrolidine-3-carboxamide], in the data set with CCR2+ expressing cells, the “PD (percent depletion of CCR2+ expressing cells)” value was “unchanged” and the “PK (blood concentration of small molecule ARM compound)” value is listed as “unchanged”.
